Common to all, as to assay type: physicochemical
Series [1] can be described thus: Visual assessment of thioglycolipid aggregation and hydrogel formation. More on the design: key to Visual assessment of aggregation and gelation: G = gel; F = fibrous aggregation; C = clear solution; O = cloudy solution. The note with it: room temperature. On the procedure: Preparation of Thioglycolipid Solutions and Hydrogel Fabrication. Aqueous solutions of thioglycolipids were prepared by weighing 2-3 mg of thioglycolipids and adding an appropriate volume of water to make solution samples at desired concentrations in vials. The vials were capped, sealed with Parafilm, and heated to 75° C. (or 85° C. for LacSC12) until the thioglycolipids were completely dissolved, which typically required about 1 min. The samples were then allowed to cool to ambient temperature. Above some minimal concentration, the solution forms hydrogels upon cooling (FIG. 1). While hydrogelation happens in under 1 min, the gels were allowed to equilibrate at room temperature for 15 min before any analysis. To make metastable thiocellobiosides gels, the samples were quenched at −4° C. after dissolution at 75° C. Although the metastable hydrogels also formed in under 1 min, the gels were allowed to equilibrate at −4° C. for 15 min before analysis.
Visual Assessment of Thioglycolipid Hydrogel Formation. A wide range of thioglycolipid solutions were evaluated to establish concentration conditions (wt %) under which hydrogelation occurs and to assess the formation of other phases. For LacSC8 and LacSC12 solutions at concentrations <0.5 wt %, the solutions were either clear (C) or contain large aggregates (O) (i.e., cloudy). These solutions formed partial hydrogels surrounded by clear solution between 0.5 but <1 wt %, and were completely gelled at concentrations of 1 wt % and greater. Solutions of LacSC10 at <2 wt % formed partial hydrogels surrounded by clear liquid but were completely gelled at or above 2 wt %. […] CelSC10 and CelSC12 solutions formed settled fibrous aggregates in clear solution after equilibrating at ambient temperature overnight. […] If retained at 5° C. , the CelSC10 and CelSC12 gels were stable for at least 6 months. […] Powder x-ray diffraction confirmed that these fibrous aggregates were crystalline. Overall, the thioglycolipid concentration at which hydrogelation can be observed can be as low as 0.05 wt %, depending on thioglycolipid system, compared to the typical concentration for hydrogelation of at least 1 wt % commonly reported in the literature, although 0.25-2 wt % is the concentration range wherein these thioglycolipid solutions became fully hydrogelled. The existence of metastable hydrogels and the ability to tune the transformation of hydrogels into crystals may allow their potential use as smart materials for different applications.

A short description of series [2]: Differential scanning calorimetry of hydrogels (gel-sol phase transition). The note with it: 2 wt % hydrogel. On the procedure:
Differential Scanning calorimetry. A Mettler Toledo DSC 823e differential scanning calorimeter, equipped with cooling apparatus, was used for measurement of the phase transition temperature and enthalpy of the gels. Hydrogel samples were first prepared using the fabrication method described above. Then, they were heated to 75° C. (or 85° C. for LacSC12) until they were in the solution state and then pipetted into aluminum, 40 μL DSC pans and capped with lids. The amount of hydrogel in each aluminum pan was controlled to about 6-8 mg. The pans were maintained at 85° C. for 1 min to ensure the samples were in the solution state. Then, they were cooled to 5° C. and maintained at this temperature for 20 min to ensure the formation of hydrogels. […], the samples were heated from 5° C. to 85° C. at a heating rate at 5° C. per min.
Thermal Properties by DSC. Differential scanning calorimetry (DSC) was used to determine the phase transition temperature as well as to explore the possible existence of other lyotropic phases. DSC involves monitoring the enthalpy change during a phase transition, which can be used as a measure of hydrogel stability. The results (Table 2) indicated an endothermic transition between 30° C. and 80° C. for all thioglycolipid hydrogels studied, and these transitions matched those observed visually in bulk solutions. Overall, hydrogels with longer carbon chains had higher thermostability (i.e., higher phase transition temperature). In addition, the LacSCx (x=10,12) hydrogels had higher thermostability than the CelSCx (x=10,12) hydrogels, despite similar phase transition enthalpies. […] However, the LacSC12 and CelSC12 hydrogels required twice the enthalpy compared to the other three.
(Differential scanning calorimetry records heat flow against a reference as temperature is scanned.)

A short description of series [3]: Small amplitude oscillatory shear rheology of hydrogels (strain sweep, frequency sweep, thixotropy). The note with it: LacSC10 2 wt %, LacSC12 1 wt %. On the procedure: Rheometry. The viscoelastic mechanical properties of the hydrogels were characterized using small amplitude oscillatory shear rheology on a Discovery Hybrid Rheometer 2 (TA Instruments, USA) with a sandblasted 20 mm cone-and-plate geometry at a 1° angle and a sandblasted stage. Inertia, friction, and rotational mapping calibrations were performed prior to each experiment. A Peltier temperature-controlled stage was maintained at 4° C., 10° C., 25° C., or 37° C. for rheology testing. Hydrogels were heated in a water bath above their transition temperature for 5 min, then transferred to the stage before the geometry was lowered quickly (1-3 sec) to the testing gap height of 50 μm. Excess gel was trimmed from the edges of the assembly. To control evaporation, the assembly was encased in a solvent trap with a water seal, and a mineral oil barrier was placed around the edges of the trap. Hydrogels were allowed to form and relax for 1 hour prior to experimentation. Strain sweeps were performed from 0.01% to 1000% shear strain at a constant 10 rad/s angular frequency. G′ (storage modulus) and G″ (loss modulus) were determined by averaging data within the linear viscoelastic region of the strain sweep. Frequency sweeps were performed from 0.01 rad/s to 100 rad/s at a constant 0.01% shear strain. Thixotropy experiments were conducted by cycling the shear strain between 0.01% and 100%. […]

A short description of series [4]: Stability of hydrogel disks in aqueous media of various pH. The text has this:
Stability of some of the representative hydrogels of the invention in various pH aqueous media was investigated.

The structures appear in SMILES notation. Some results are limits rather than exact numbers.

Data on one compound can be found in patent publication US20240181136A1, “LOW MOLECULAR WEIGHT HYDROGELS COMPRISING THIOGLYCOLIPIDS” (ARIZONA BOARD OF REGENTS ON BEHALF OF THE UNIVERSITY OF …, priority 2021, published 2024).

For `CCCCCCCCCCS[C@@H]1O[C@H](CO)[C@@H](O[C@@H]2O[C@H](CO)[C@H](O)[C@H](O)[C@H]2O)[C@H](O)[C@H]1O` [LacSC10], in series [1], the “Concentration at which solutions were completely gelled” value is reported as no less than 2 wt %. The “Visual assessment of aggregation and gelation” value in series [1] (thioglycolipid concentration 0.05 wt %), in series [1] (thioglycolipid concentration 0.1 wt %), in series [1] (thioglycolipid concentration 0.25 wt %), in series [1] (thioglycolipid concentration 0.5 wt %), in series [1] (thioglycolipid concentration 0.75 wt %) and in series [1] (thioglycolipid concentration 1 wt %) was “G + C” each time. Moreover, the “Visual assessment of aggregation and gelation” value in series [1] (thioglycolipid concentration 2 wt %), in series [1] (thioglycolipid concentration 5 wt %) and in series [1] (thioglycolipid concentration 10 wt %) was “G” each time. In addition, the Phase transition temperature in series [2] (DSC heating 5° C. per min) was 57-64 °C. Moreover, the “Enthalpy (J/g hydrogel)” value in series [2] (gel-sol transition) is on record as 0.35 ± 0.02 J/g hydrogel. Besides, the “Enthalpy (kJ/mol thioglycolipids)” value in series [2] (gel-sol transition) was found to be 8.8 ± 0.5 kJ/mol thioglycolipids. Moreover, the “Gel properties at 37° C.” value in series [3] is “retained their gel properties”. Besides, the “Hydrogel disk size or volume in aqueous media” value in series [4] (pH 2, 7.4 and 10, days 1-21) is recorded as “No observable decrease in disk size or volume”. In addition, in series [4] (pH 2, 7.4 and 10, maximum time investigated), the “Time hydrogel disks are stable in aqueous media” value is given as “stable in these aqueous media for over two months”.
